Assay results reported in ChEMBL document CHEMBL5724914, “Linking interpersonal differences in gut microbiota composition and drug biotransformation activity” (2024).

Experiments:
[1] = human gut metagenome, 24 h, 2 µM
[2] = human gut metagenome, 24 h, 2 µM; remark: listed apart in the source
[3] = (§1) The drug is tested on WLS-098 corresponding to human gut metagenome with ENA study accession number: PRJEB37062 and ENA sample accession number: ERS12561754 for biotransformation under anaerobic condition. The drug concentrations were measured over 9 timepoints collected between 0 and 24 hours of incubation by liquid-chromatography-coupled mass spectrometry (LC–MS); conditions: 2 µM
[4] = human gut metagenome, 24 h, 2 µM; remark: listed apart in the source
[5] = as §1, with “Z-001” for “WLS-098”, “mouse” for “human”, “ERS12561801” for “ERS12561754”; conditions: 2 µM
[6] = as §1, with “WLS-370” for “WLS-098”, “ERS12561793” for “ERS12561754”; conditions: 2 µM
[7] = as §1, with “WLS-073” for “WLS-098”, “ERS12561749” for “ERS12561754”; conditions: 2 µM
[8] = as §1, with “WLS-082” for “WLS-098”, “ERS12561751” for “ERS12561754”; conditions: 2 µM
[9] = as §1, with “Z-030” for “WLS-098”, “mouse” for “human”, “ERS12561829” for “ERS12561754”; conditions: 2 µM
[10] = as §1, with “Z-014” for “WLS-098”, “rat” for “human”, “ERS12561814” for “ERS12561754”; conditions: 2 µM
[11] = as §1, with “Z-007” for “WLS-098”, “rat” for “human”, “ERS12561807” for “ERS12561754”; conditions: 2 µM
[12] = as §1, with “Z-027” for “WLS-098”, “to” for “to human gut”, “ERS12561826” for “ERS12561754”; conditions: 2 µM
[13] = as §1, with “Z-008” for “WLS-098”, “to” for “to human gut”, “ERS12561808” for “ERS12561754”; conditions: 2 µM
[14] = as §1, with “Z-029” for “WLS-098”, “rat” for “human”, “ERS12561828” for “ERS12561754”; conditions: 2 µM
[15] = as §1, with “WLS-069” for “WLS-098”, “ERS12561748” for “ERS12561754”; conditions: 2 µM
[16] = as §1, with “Z-003” for “WLS-098”, “pig” for “human”, “ERS12561803” for “ERS12561754”; conditions: 2 µM
[17] = as §1, with “Z-018” for “WLS-098”, “pig” for “human”, “ERS12561817” for “ERS12561754”; conditions: 2 µM
[18] = as §1, with “Z-009” for “WLS-098”, “pig” for “human”, “ERS12561809” for “ERS12561754”; conditions: 2 µM
[19] = human gut metagenome, 24 h, 2 µM; remark: listed apart in the source
[20] = human gut metagenome, 24 h, 2 µM; remark: listed apart in the source
Further: call rule not given here.

Structure (SMILES) | Bacterial Biotransformation [1] | Bacterial Biotransformation [2] | Bacterial Biotransformation [3] | Bacterial Biotransformation [4] | Bacterial Biotransformation [5] | Bacterial Biotransformation [6] | Bacterial Biotransformation [7] | Bacterial Biotransformation [8] | Bacterial Biotransformation [9] | Bacterial Biotransformation [10] | Bacterial Biotransformation [11] | Bacterial Biotransformation [12] | Bacterial Biotransformation [13] | Bacterial Biotransformation [14] | Bacterial Biotransformation [15] | Bacterial Biotransformation [16] | Bacterial Biotransformation [17] | Bacterial Biotransformation [18] | Bacterial Biotransformation [19] | Bacterial Biotransformation [20]
C[C@@H](c1ncncc1F)[C@](O)(Cn1cncn1)c1ccc(F)cc1F [VORICONAZOLE] | Compound metabolized | Compound metabolized | Compound metabolized | Compound metabolized | Compound NOT metabolized | Compound metabolized | Compound metabolized | Compound metabolized | Compound NOT metabolized | Compound NOT metabolized | Compound NOT metabolized | Compound NOT metabolized | Compound NOT metabolized | Compound metabolized | Compound metabolized | Compound metabolized | Compound metabolized | Compound metabolized | Compound metabolized | Compound metabolized
CC(CCc1ccccc1)NCC(O)c1ccc(O)c(C(N)=O)c1 (centres undefined) [LABETALOL] | Compound NOT metabolized | Compound NOT metabolized | Compound NOT metabolized | Compound NOT metabolized | Compound NOT metabolized | Compound NOT metabolized | Compound NOT metabolized | Compound NOT metabolized | Compound NOT metabolized | Compound NOT metabolized | Compound NOT metabolized | Compound metabolized | Compound NOT metabolized | Compound NOT metabolized | Compound NOT metabolized | Compound NOT metabolized | Compound NOT metabolized | Compound NOT metabolized | Compound NOT metabolized | Compound NOT metabolized
O=C(NC(Cc1cc(=O)[nH]c2ccccc12)C(=O)O)c1ccc(Cl)cc1 (centres undefined) [REBAMIPIDE] | Compound metabolized | Compound NOT metabolized | Compound NOT metabolized | Compound NOT metabolized | Compound NOT metabolized | Compound metabolized | Compound NOT metabolized | Compound NOT metabolized | Compound NOT metabolized | Compound NOT metabolized | Compound NOT metabolized | Compound NOT metabolized | Compound NOT metabolized | Compound NOT metabolized | Compound NOT metabolized | Compound NOT metabolized | Compound NOT metabolized | Compound NOT metabolized | Compound NOT metabolized | Compound NOT metabolized
COC1=C(OC)C(=O)C(CCCCCCCCCCO)=C(C)C1=O [IDEBENONE] |  |  |  | Compound metabolized | Compound NOT metabolized | Compound metabolized | Compound metabolized | Compound metabolized | Compound NOT metabolized | Compound metabolized | Compound metabolized | Compound NOT metabolized |  | Compound NOT metabolized | Compound metabolized | Compound metabolized | Compound metabolized | Compound metabolized |  | 
COc1cc2nc(N3CCN(C(=O)C4CCCO4)CC3)nc(N)c2cc1OC (centres undefined) [TERAZOSIN] | Compound NOT metabolized | Compound NOT metabolized | Compound metabolized | Compound metabolized | Compound NOT metabolized | Compound NOT metabolized | Compound metabolized | Compound metabolized | Compound NOT metabolized | Compound NOT metabolized | Compound NOT metabolized | Compound NOT metabolized | Compound NOT metabolized | Compound NOT metabolized |  | Compound NOT metabolized | Compound metabolized | Compound metabolized | Compound NOT metabolized | Compound metabolized
CN[C@H]1CC[C@@H](c2ccc(Cl)c(Cl)c2)c2ccccc21 [SERTRALINE] | Compound metabolized | Compound NOT metabolized | Compound metabolized | Compound metabolized | Compound NOT metabolized | Compound metabolized |  | Compound metabolized | Compound NOT metabolized | Compound NOT metabolized | Compound NOT metabolized | Compound metabolized | Compound NOT metabolized | Compound NOT metabolized | Compound metabolized | Compound metabolized | Compound metabolized | Compound metabolized | Compound NOT metabolized | Compound NOT metabolized
CCc1oc2ccccc2c1C(=O)c1cc(Br)c(O)c(Br)c1 [BENZBROMARONE] | Compound metabolized | Compound metabolized | Compound metabolized | Compound metabolized | Compound NOT metabolized | Compound NOT metabolized |  | Compound metabolized | Compound NOT metabolized | Compound NOT metabolized | Compound NOT metabolized | Compound NOT metabolized | Compound NOT metabolized | Compound NOT metabolized | Compound metabolized | Compound metabolized | Compound metabolized | Compound NOT metabolized | Compound NOT metabolized | Compound metabolized
CC(=O)OCC(=O)NCCCOc1cccc(CN2CCCCC2)c1 [ROXATIDINE ACETATE] | Compound metabolized | Compound metabolized | Compound metabolized |  | Compound metabolized | Compound metabolized | Compound metabolized | Compound metabolized | Compound NOT metabolized | Compound metabolized | Compound metabolized | Compound metabolized | Compound metabolized | Compound metabolized |  | Compound metabolized | Compound metabolized | Compound metabolized | Compound metabolized | Compound metabolized
